Results published in US20030114358A1, “Use of compatible solutes as inhibitors of the enzymatic decomposition of macromolecular biopolymers” (priority 2000, published 2003).

What was measured:
Format in all cases: biochemical
[1] = target: pepsin (Homo sapiens, UniProt P0DJD8); test: Pepsin activity by spectrophotometry on hydrolysis of a synthetic hexapeptide; details: substrate Leu-Ser-p-NitroPhe-Nle-Ala-Leu methyl ester; enzyme-kinetic measurements
Description: In principle, the experiments allow for two possible explanations. On the one hand, the compatible solutes could inhibit the protease. On the other hand, the solute could prevent the attack of the protease according to the invention for steric reasons through stabilization of the native, more compact conformation of the antibody molecule. Therefore, the effect of ectoine and hydroxyectoine on the activity of pepsin was determined by spectrophotometry on the hydrolysis of a synthetic low-molecular weight hexapeptide [E. Schinaith: Clin. Biochem. 22, 91-98 (1989)]. […] This is a clear indication of the fact that the inhibition of the antibody proteolyses is to be attributed to steric effects according to the invention.

[2] = test system: peroxidase-conjugated rabbit anti-mouse antibody; test: ELISA residual signal after pepsin pretreatment of peroxidase conjugate; details: two hours at 37° C.
Description: The inhibition by ectoine of the proteolysis of antibodies was additionally shown by enzyme-linked immunosorbent assay (ELISA). Thus, 96-well ELISA plates were coated over night with 0.5 μg of human IgG in 100 μl of 0.9% NaCl at 4° C. Subsequently, the plates were washed three times in 50 mM Tris, 0.8% NaCl, 0.020% KCl, pH 7.4, C(T-TBS), and blocked with 200 μl of 1% gelatin in TBS for 2 hours at 37° C. After three washes in T-TBS, an incubation was performed with monoclonal mouse anti-human IgG diluted 1:250 in TBS at 50 μl per well for one hour at 37° C. After four washes with T-TBS, incubation was performed with a peroxidase-conjugated rabbit anti-mouse antibody diluted 1:5000 in TBS at 100 μl per well for one hour at 37° C. After four additional washes, the enzyme reaction was performed by adding 100 μl of substrate per well. As the substrate was used 4.8 mg of phenylene diamine in 3 ml of 0.2 M Na2HPO4, 3 ml of 0.1 M citric acid, 6 ml of water, and 5 μl of H2O2. The reaction was stopped after about 10 minutes by acidification with 100 μl per well of 0.07 M sulfuric acid, and the plates were quantified in an ELISA autoreader. Prior to the experiment, all three protein components were proteolyzed by pepsin for two hours at 37° C. with or without the addition of 0.5 M ectoine. […] The antibody conjugate was not attacked by pepsin. […]

[3] = test system: monoclonal mouse anti-human IgG; test: ELISA residual signal after pepsin pretreatment of monoclonal mouse antibody; details: for Residual signal in ELISA, pretreated antibody monoclonal mouse antibody: two hours at 37° C.
Description: (§1) The inhibition by ectoine of the proteolysis of antibodies was additionally shown by enzyme-linked immunosorbent assay (ELISA). Thus, 96-well ELISA plates were coated over night with 0.5 μg of human IgG in 100 μl of 0.9% NaCl at 4° C. Subsequently, the plates were washed three times in 50 mM Tris, 0.8% NaCl, 0.020% KCl, pH 7.4, C(T-TBS), and blocked with 200 μl of 1% gelatin in TBS for 2 hours at 37° C. After three washes in T-TBS, an incubation was performed with monoclonal mouse anti-human IgG diluted 1:250 in TBS at 50 μl per well for one hour at 37° C. After four washes with T-TBS, incubation was performed with a peroxidase-conjugated rabbit anti-mouse antibody diluted 1:5000 in TBS at 100 μl per well for one hour at 37° C. After four additional washes, the enzyme reaction was performed by adding 100 μl of substrate per well. As the substrate was used 4.8 mg of phenylene diamine in 3 ml of 0.2 M Na2HPO4, 3 ml of 0.1 M citric acid, 6 ml of water, and 5 μl of H2O2. The reaction was stopped after about 10 minutes by acidification with 100 μl per well of 0.07 M sulfuric acid, and the plates were quantified in an ELISA autoreader. Prior to the experiment, all three protein components were proteolyzed by pepsin for two hours at 37° C. with or without the addition of 0.5 M ectoine. […] The antibody conjugate was not attacked by pepsin. The treatment was performed in an analogous manner with hydroxyectoine, proline and betaine.

[4] = test system: heavy chains of a human antibody (IgG); test: Limited proteolysis of human IgG by pepsin, quantified in 12% SDS gels; details: 0.5 M solute; 0.5 mg/ml antibody, 5 μg/ml pepsin, 37° C., 100 mM sodium acetate pH 3; FIG. 1
Description: Limited proteolyses of human IgG were performed at an antibody concentration of 0.5 mg/ml and a pepsin concentration of 5 μg/ml at 37° C. in 100 mM sodium acetate, pH 3. The incubations were performed without additions under 0.5 M ectoine, under 0.5 M hydroxyectoine, and under a mixture of 0.25 M ectoine and 0.25 M hydroxyectoine. The course of the limited proteolyses was quantified subsequent to the incubations in 12% SDS gels under reducing conditions.
Lanes 1, 5, 9: with water; lanes 2, 6, 10: with ectoine; lanes 3, 7, 11: with ectoine and hydroxyectoine; lanes 4, 8, 12; with hydroxyectoine; lanes 1, 2, 3, 4: without incubation; lanes 5, 6, 7, 8: after 15 min of incubation; lanes 9, 10, 11, 12: after 180 min of incubation.

[5] = test system: human IgG; test: ELISA residual signal after pepsin pretreatment of human IgG; details: for Residual signal in ELISA, pretreated antibody human IgG: two hours at 37° C.
Description: as §1

[6] = with ectoine (0.5 M) and pepsin
[7] = with ectoine (0.5 M), without pepsin

Sequence of pepsin (P0DJD8 63-388): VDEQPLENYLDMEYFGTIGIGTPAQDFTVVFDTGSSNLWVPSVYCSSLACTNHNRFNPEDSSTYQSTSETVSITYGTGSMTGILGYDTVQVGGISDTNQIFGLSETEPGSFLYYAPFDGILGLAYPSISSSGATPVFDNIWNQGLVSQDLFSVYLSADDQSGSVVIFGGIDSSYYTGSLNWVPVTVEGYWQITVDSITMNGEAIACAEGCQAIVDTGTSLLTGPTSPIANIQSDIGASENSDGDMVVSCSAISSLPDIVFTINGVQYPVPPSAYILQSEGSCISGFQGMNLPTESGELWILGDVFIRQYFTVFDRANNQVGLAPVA

CC1=NCC[C@@H](C(=O)O)N1 [ectoine]
inhibition of the protease pepsin [1]: neither ectoine nor hydroxyectoine inhibits the protease
Residual signal in ELISA, pretreated antibody peroxidase conjugate [2, 6]: 121%
Residual signal in ELISA, pretreated antibody peroxidase conjugate [2, 7]: 98%
protection of monoclonal mouse antibody against proteolytic digest by pepsin ([3]; 0.5 M ectoine, ELISA): effectively protected
Residual signal in ELISA, pretreated antibody monoclonal mouse antibody [3, 6]: 98%
Residual signal in ELISA, pretreated antibody monoclonal mouse antibody [3, 7]: 97%
hydrolysis of the heavy chain of human IgG by pepsin [4]: inhibited significantly
protection of human IgG against proteolytic digest by pepsin ([5]; 0.5 M ectoine, ELISA): effectively protected
Residual signal in ELISA, pretreated antibody human IgG [5, 6]: 91%
Residual signal in ELISA, pretreated antibody human IgG [5, 7]: 85%

CC1=NC[C@H](O)[C@@H](C(=O)O)N1 [hydroxyectoine]
inhibition of the protease pepsin [1]: neither ectoine nor hydroxyectoine inhibits the protease
hydrolysis of the heavy chain of human IgG by pepsin [4]: inhibited significantly
